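Method: 48-hour compound exposure of cells in 96-well plates, five concentrations, linear interpolation of endpoints. At the GI50, growth is halved.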 Active and inactive are the calls of the source. Cut-off read from the data, not from the text of the source: active = GI50 up to about 1.1 µM and inactive = higher.
Columns and labels:
Experiment in all cases: NCI anticancer screen, dose series, 48 h
OVCAR-5 = tested on: OVCAR-5
SNB-19 = tested on: SNB-19
SW-620 = tested on: SW-620
M14 = tested on: M14
MDA-MB-435 = tested on: MDA-MB-435
CAKI-1 = tested on: CAKI-1
MCF7 = tested on: MCF7
COLO 205 = tested on: COLO 205
CCRF-CEM = tested on: CCRF-CEM
HOP-62 = tested on: HOP-62
MOLT-4 = tested on: MOLT-4
K562 = tested on: K562
HCT-15 = tested on: HCT-15
MDA-MB-231 = tested on: MDA-MB-231
T47D = tested on: T47D
BT-549 = tested on: BT-549
NCI-H460 = tested on: NCI-H460
DU-145 = tested on: DU-145
OVCAR-8 = tested on: OVCAR-8
SF-295 = tested on: SF-295

Structure (SMILES)	GI50 (OVCAR-5)	GI50 (SNB-19)	GI50 (SW-620)	GI50 (M14)	GI50 (MDA-MB-435)	GI50 (CAKI-1)	GI50 (MCF7)	GI50 (COLO 205)	GI50 (CCRF-CEM)	GI50 (HOP-62)	GI50 (MOLT-4)	GI50 (K562)	GI50 (HCT-15)	GI50 (MDA-MB-231)	GI50 (T47D)	GI50 (BT-549)	GI50 (NCI-H460)	GI50 (DU-145)	GI50 (OVCAR-8)	GI50 (SF-295)
COc1cc(C2c3cc4c(cc3OC(NNS(=O)(=O)c3ccc(C)cc3)C2C)OCO4)cc(OC)c1OC (stereo not given)	9.14 µM (inactive)	3.58 µM (inactive)	1.01 µM (active)	0.776 µM (active)	0.294 µM (active)	1.68 µM (inactive)	1.48 µM (inactive)	2.81 µM (inactive)	1.01 µM (active)	0.817 µM (active)	1.89 µM (inactive)	0.55 µM (active)	1.29 µM	4.24 µM (inactive)	3.48 µM (inactive)	3.32 µM (inactive)	2.13 µM (inactive)	3.83 µM (inactive)	8.91 µM (inactive)	0.989 µM (active)
CC(C)(C)OC(=O)N1CCC2(C)CC(=O)CC=C12 (stereo not given)	> 100 µM (inactive)	> 100 µM (inactive)	67 µM (inactive)	> 100 µM (inactive)	> 100 µM (inactive)	> 100 µM (inactive)	> 100 µM (inactive)	> 100 µM (inactive)	27.2 µM (inactive)	> 100 µM (inactive)	> 100 µM (inactive)	> 100 µM (inactive)	> 100 µM	> 100 µM (inactive)	> 100 µM (inactive)	> 100 µM (inactive)	> 100 µM (inactive)	> 100 µM (inactive)	> 100 µM (inactive)	> 100 µM (inactive)
c1ccc(CN2CCC(=NN3CCCCC3)CC2)cc1	> 100 µM (inactive)	> 100 µM (inactive)	> 100 µM (inactive)	> 100 µM (inactive)	72.8 µM (inactive)	> 100 µM (inactive)	43.3 µM (inactive)	28.1 µM (inactive)	31.8 µM (inactive)	> 100 µM (inactive)	39.4 µM (inactive)	31.1 µM (inactive)	> 100 µM	43.3 µM (inactive)	37.1 µM (inactive)	43.5 µM (inactive)	46.6 µM (inactive)	> 100 µM (inactive)	65.2 µM (inactive)	> 100 µM (inactive)
O=C(Cc1ccc(Cl)c(Cl)c1)NCCCN1CCN(CCCN2CCCCC2)CC1	20 µM (inactive)	26.9 µM (inactive)	19.9 µM (inactive)	19.3 µM (inactive)	1.9 µM (inactive)	20.4 µM (inactive)	18.5 µM (inactive)	13.2 µM (inactive)	16 µM (inactive)	17 µM (inactive)	10.9 µM (inactive)	2.17 µM (inactive)	20.7 µM	12 µM (inactive)	20.3 µM (inactive)	21.9 µM (inactive)	16.6 µM (inactive)	40.5 µM (inactive)	27.6 µM (inactive)	19 µM (inactive)
CC12c3c4ccc(C=O)c3Oc3ccc(C=O)c(c31)Oc1ccc(C=O)c(c12)O4	> 25 µM (inactive)	> 25 µM (inactive)	> 25 µM (inactive)	> 25 µM (inactive)	> 25 µM (inactive)	> 25 µM (inactive)	> 25 µM (inactive)	> 25 µM (inactive)	17.5 µM (inactive)	> 25 µM (inactive)	> 25 µM (inactive)	> 25 µM (inactive)	> 25 µM	> 25 µM (inactive)	> 25 µM (inactive)	> 25 µM (inactive)	> 25 µM (inactive)	> 25 µM (inactive)	> 25 µM (inactive)	> 25 µM (inactive)
CN(CCc1ccc(Cl)c(Cl)c1)CCN(C)CCN1CCCC1	18.6 µM (inactive)	17.4 µM (inactive)	12.1 µM (inactive)	4.86 µM (inactive)	2.02 µM (inactive)	15.2 µM (inactive)	12.1 µM (inactive)	2.23 µM (inactive)	3.72 µM (inactive)	15.1 µM (inactive)	3.6 µM (inactive)	2.25 µM (inactive)	14.5 µM	8.99 µM (inactive)	19.2 µM (inactive)	16.7 µM (inactive)	8.93 µM (inactive)	25.6 µM (inactive)	21.7 µM (inactive)	16.5 µM (inactive)
O=C1/C(=N\n2c(S)nnc2-c2ccncc2)c2cc(Cl)ccc2N1CN1CCCCC1	> 100 µM (inactive)	76 µM (inactive)	18.6 µM (inactive)	44.7 µM (inactive)	32.2 µM (inactive)	33.7 µM (inactive)	31.2 µM (inactive)	41 µM (inactive)	6.97 µM (inactive)	30.3 µM (inactive)	12.3 µM (inactive)	20.5 µM (inactive)	25.4 µM	> 100 µM (inactive)	23.1 µM (inactive)	25.9 µM (inactive)	36.8 µM (inactive)	29.6 µM (inactive)	31.8 µM (inactive)	94 µM (inactive)

Reference: ChEMBL document CHEMBL1201862, “PubChem BioAssay data set” (2004)
